By IC50 is commonly meant the concentration needed to halve the response being measured.

Assay [1] deals with HCT-116 colon cancer cells. Put plainly: XTT cell proliferation assay, HCT-116. Format: cell-based, human. The following applies: read-out: IC50 (cell growth inhibition). Here is the method: (§1) Cell growth inhibition IC50 (μM) by compounds of Formula I was tested on various cancer cell types by XTT cell proliferation assay. The growth inhibitory effects of the compounds of Formula I as shown below for the melanoma cell line SK-MEL-2 were reproducible by Lorus Therapeutics Inc.
On the technique in general: Tetrazolium dyes change colour on reduction, which living cells bring about.

Assay [2] deals with metallothionein 1A (MT1A). Kind of assay: Metallothionein 1A (MT1A) mRNA expression in HT-29 cells, real time PCR. The format is cell-based, human. Particulars: for MT1A expression change with zinc supplement: HT-29, 1 μM compound plus 35 μM ZnCl2; for MT1A gene expression, change: HT-29, versus DMSO control, in words. How it is done: To determine whether compounds of Formula I can chelate zinc in cells, the effect of compound 3 on the expression level of a zinc-regulated gene, metallothionein 1A (MT1A), in human colon carcinoma HT-29 cells, was determined. HT-29 cells, 1×10^6 cells in 10 mL volume of the growth medium were seeded in 100 mm dishes and incubated overnight at 37° C. The medium was removed and replaced with the growth medium containing 35 μM ZnCl2, 1 μM or 4 μM TPEN (NNNN-tetrakis(2-pyridyl-methyl)ethylenediamine), or 1 μM or 4 μM compound 3, or 0.1% DMSO vehicle control. After incubation for 16 hours, the cells were detached by trypsinization, collected by centrifugation and washed once with PBS. Total RNA was extracted by using TRIZOL (Invitrogen, Life Technologies, Carlsbad, Calif.), following manufacturer's instruction, and the level of MT1A mRNA was measured by real time PCR using the comparative CT method as follows. First strand cDNA was synthesized from 200 ng total RNA in Biometra Tpersonal Thermal Cycler (Abgene, UK), using pd(N)6 random hexamer (Amersham Biosciences, Piscataway, N.J.) and SuperScript™ II Reverse Transcriptase kit (Invitrogen) by following manufacturer's protocol. Real-time PCR was performed in ABI Prism 7000 Sequence Detection System (Applied Biosystems Inc., ABI, Foster City, Calif.), using 5 μL of cDNA synthesized by above-mentioned procedure and respective TaqMan® Gene Expression Assays (ABI) by following ABI TaqMan® Universal PCR master mix protocol.
The effect of compound 3 and compound 7 treatment on the expressions of a zinc-storage protein meallothionein 1A (MT1A) (FIG. 29A), a copper transporter, Ctrl also known as SLC31A1 (FIG. 29B) and an iron transporter; transferrin receptor 1 (TfR1) (FIG. 29C) were measured and compared with a known zinc chelator TPEN, a copper chelator tetramine and an iron chelator DFO, respectively. Despite in vitro chelation of Cu^+2, increase in copper-sensitive gene after compound 3 treatment was transient.
HT-29 cells were treated with 1 μM compound 3 for the indicated time and MT1A gene expression was measured as follows. Total RNA was extracted using TRIZOL method and gene expression level was determined by quantitative reverse-transcription polymerase chain reaction (RT-PCR). MT1A gene expression was normalized with β-actin gene expression in the same sample. Fold change in MT1A was expressed relative to MT1A level of DMSO control at respective time points.
To verify that the MT1A gene expression reflected the intracellular zinc level, HT-29 cells were treated with 1 μM compound 3, 35 μM ZnCl2 or compound 3 and ZnCl2 together for 16 hr (FIG. 38B). MT1A gene expression was determined by RT-PCR as described above. MT1A gene expression was elevated in response to increased intracellular zinc ions in ZnCl2-treated cells.
(§2) The ability of compounds of Formula I to modulate gene expression of MT1A (FIG. 55A), MTF-1 (FIG. 55B), Cyclin D1 (FIG. 55C) and KLF4 (FIG. 55D) was determined by RT-PCR. HT-29 cells were treated with 1 μM compound 3 or compound 7, 35 μM ZnCl2, compound 3 and ZnCl2 together, or compound 7 and ZnCl2 together for 8 to 16 hr. The respective gene expression was normalized with β-actin gene expression in the same sample. Fold change in gene expression was expressed relative to the respective gene level of DMSO control.
(§3) The effect of compound 3 and compound 64 on gene expression changes in MT1A (FIG. 57A), MTF-1 (FIG. 57B), Cyclin D1 (FIG. 57C) and KLF4 (FIG. 57D) in HT-29 cells was determined by RT-PCR. HT-29 cells were treated with 1 μM compound 3 or compound 64, 35 μM ZnCl2, compound 3 and ZnCl2 together, or compound 64 and ZnCl2 together for 8 to 16 hr. The respective gene expression was normalized with β-actin gene expression in the same sample. Fold change in gene expression was expressed relative to the respective gene level of DMSO control.

The subject of the next assay is MTF-1. Put plainly: MTF-1 gene expression in HT-29 cells, RT-PCR. Particulars: for MTF-1 expression change with zinc supplement: HT-29, 1 μM compound plus ZnCl2, 8 hr; for MTF-1 gene expression, change: HT-29, 1 μM, in words. Format: cell-based, human. Here is the method:
The gene expression of MTF-1 was examined by RT-PCR following treatment of HT-29 cells with 1 μM compound 3 for indicated time.
To assess the cellular response to zinc depletion, the gene expression of zinc-sensitive transcription factor MTF-1 was examined.
as §2, §3

The subject of a further assay is SK-MEL-2 melanoma cells. Kind of assay: XTT cell proliferation assay, SK-MEL-2. Format: cell-based, human. Particulars: read-out: IC50 (cell growth inhibition). Here is the method:
as §1

In another assay the test system is H-460 lung cancer cells. Put plainly: XTT cell proliferation assay, H-460. The format is cell-based, human. Here is the method: as §1
The test system of assay [3] is MDA-MB-435 breast cancer cells. Put plainly: XTT cell proliferation assay, MDA-MB-435. The format is cell-based, human. The following applies: read-out: IC50 (cell growth inhibition). How it is done:
as §1

In assay [4] the test system is human colon carcinoma HT-29 cells. Put plainly: XTT cell proliferation assay, HT-29. Format: cell-based. In a few lines:
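HT-29 cells in McCoy's 5A with 10% FBS, 37° C., 5% CO2, exposed to varying compound concentrations for 6-7 days. Viable cells quantified by XTT reduction to formazan; growth inhibition expressed as IC50 (μM).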

Where [5] appears, read: Homo sapiens, NCI-H460, read-out: IC50 (cell growth inhibition).
The mark [6] stands for this setting: Homo sapiens, HT-29, XTT, 6-7 days, Table 3, read-out: IC50.
Where [7] appears, read: Homo sapiens, HT-29, XTT, as Example 13, Table 7, read-out: IC50.
Setting [8] is: Homo sapiens, HT-29 colon, Table 8, read-out: IC50 (cell growth inhibition).

The structures appear in SMILES notation. Entries after “also recorded” stand apart in the source; their conditions may differ. Read-outs that look alike come from different tables or passages of the source.

On to `Cc1[nH]c2ccccc2c1-c1nc2c3cccnc3c3ncccc3c2[nH]1` [Compound 3], for which the IC50 turned out to be 200 nM in assay [1] (Homo sapiens); 250 nM with SK-MEL-2 melanoma cells (Homo sapiens); 2900 nM in the assay on H-460 lung cancer cells (setting [5]); 350 nM in assay [3] (Homo sapiens); 600 nM in assay [4] (setting [6]); 0.6 µg/mL in assay [4] (setting [7]). For the same compound, in assay [4] (setting [8]), the IC50 stood at 710 nM. Besides, the “MT1A expression change with zinc supplement” value (from here on “MT1A expression change”) in assay [2] is given as “reversed by addition of zinc supplement”. Besides, the “decrease of MT1A expression” value in assay [2] (HT-29, 16 hours, 1 μM or 4 μM) is reported as “more than 50%”. In assay [2], the “MT1A gene expression, change” value was “sustained decrease in zinc-sensitive gene; also recorded: decrease in MT1A gene expression was obvious after 8 hr treatment; also recorded: decreased expressions of MT1A, MTF-1 and Cyclin D1”. Moreover, the “MTF-1 expression change with zinc supplement” value (“MTF-1 expression change” for short) with MTF-1 is reported as “recovered by addition of zinc supplement; also recorded: reversed by addition of zinc supplement”. Moreover, the “MTF-1 gene expression, change” value in the assay with MTF-1 was “Time-dependent decreases; also recorded: decrease in MTF-1 expression was observed after 8 hr treatment; also recorded: significant decrease in gene expression of MTF-1; also recorded: decreased expressions of MT1A, MTF-1 and Cyclin D1”.
As for `CCc1cccc2c(-c3nc4c5cccnc5c5ncccc5c4[nH]3)c(C(C)(C)C)[nH]c12` [Compound 64], the 50% inhibitory concentration (IC50) in assay [1] is 200 nM; with SK-MEL-2 melanoma cells, 200 nM; in the assay with H-460 lung cancer cells (read-out: IC50 (cell growth inhibition)) it was 300 nM; in assay [3], 500 nM; in assay [4] (HT-29, XTT, as Example 13, Table 7) it was 0.15 µg/mL; in assay [4] (HT-29 colon, Table 8, read-out: IC50 (cell growth inhibition)), 150 nM. In addition, the “MT1A expression change” value in assay [2] is recorded as “reversed by addition of zinc supplement”. For the same compound, the “MT1A gene expression, change” value in assay [2] is “decreased expressions of MT1A, MTF-1 and Cyclin D1”. Moreover, in the assay with MTF-1, the “MTF-1 expression change” value is “reversed by addition of zinc supplement”. In the assay with MTF-1, the “MTF-1 gene expression, change” value is “decreased expressions of MT1A, MTF-1 and Cyclin D1”.
Regarding `Cc1[nH]c2ccc(F)cc2c1-c1nc2c3cccnc3c3ncccc3c2[nH]1` [Compound 7], the IC50 in assay [1] (Homo sapiens) amounted to 150 nM; in the assay on SK-MEL-2 melanoma cells (Homo sapiens) it was 200 nM; in the assay on H-460 lung cancer cells (setting [5]), 2600 nM; in assay [3] (Homo sapiens), 200 nM; in assay [4] (setting [6]), 700 nM; in assay [4] (setting [7]), 0.7 µg/mL. Besides, the IC50 in assay [4] (setting [8]) is 800 nM. In assay [2], the “MT1A expression change” value is “reversed by addition of zinc supplement”. For the same compound, the “MT1A gene expression, change” value in assay [2] is “decreased expressions of MT1A, MTF-1 and Cyclin D1”. The “MTF-1 expression change” value in the assay with MTF-1 is “reversed by addition of zinc supplement”. For the same compound, the “MTF-1 gene expression, change” value with MTF-1 is “decreased expressions of MT1A, MTF-1 and Cyclin D1”.

The record behind these values is US8148392B2, “2-indolyl imidazo [4,5-d] phenanthroline derivatives and their use in the treatment of cancer” (Lorus Therapeutics Inc., priority 2005, dated 2012).
